Common to all, as to test: NCI-60 cell line screen, 48 h
Assay [1] concerns A549 NSCLC.
In assay [2] the test system is CAKI-1 renal.
The test system of assay [3] is HCC-2998 colon.
The test system of assay [4] is HOP-62 NSCLC.
The test system of assay [5] is HOP-92 NSCLC.
The test system of assay [6] is KM12 colon.
Assay [7] has as its system MCF7 breast.
For assay [8], the system named is SN12C renal.
The subject of assay [9] is U251 CNS.
Assay [10] concerns UACC-62 melanoma.

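Grown in 96-well plates, cells were treated for 48 hours with each compound at five concentrations. Insufficient inhibition: endpoint recorded as highest concentration tested. Abbreviation: GI50, concentration required for 50% inhibition of growth. At the TGI there is no net growth.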

Turning to `C1=CC2C(C3CN(c4ccccc4)N=C13)C1C3C4C=CC21C=CC43` (stereo unspecified), the TGI in [1], in assay [2], in assay [3], in assay [4], in [5] and in assay [6] was over 100 µM each time. The TGI in [7], in assay [8], in assay [9] and in assay [10] was over 100 µM throughout.

For the compound `O=C1C(c2ccccc2)=C(c2ccccc2)C1(Cl)Cl`, the TGI is 27.4 µM in assay [1]; 6.15 µM in assay [2]; 13.3 µM in assay [3]; 41.9 µM in assay [4]; 7.14 µM in [5]; 19.2 µM in assay [6]. In addition, the TGI worked out at 9.92 µM in [7], 11.5 µM in assay [8], 7.68 µM in [9] and 4.13 µM in assay [10].

Consider `COC(=O)/C1=C/C=C\C[C@@]2(C)CC(c3ccoc3)OC(=O)[C@@H]2CC[C@H]1C` (stereo partly specified), for which the TGI in assay [1], in assay [2], in assay [3], in assay [4], in assay [5] and in assay [6] was over 25 µM in each case. Further, the TGI in [7], in assay [8], in [9] and in [10] was over 25 µM in each case.

Consider `NC1(c2cc3ccccc3s2)CCCCCC1`, for which the TGI in [1] was determined as 34.2 µM; in assay [2] it was 26.8 µM; in assay [3], 4.49 µM; in assay [4] it was 27.7 µM; in assay [5], 30.5 µM; in assay [6] it was 30.5 µM. The TGI was 29.7 µM in [7], 31 µM in assay [8], 29.1 µM in [9] and 31.9 µM in [10].

For `Cc1cn(C2CC(O)C(Cn3nncc3Cn3nc(Br)c(=O)[nH]c3=O)O2)c(=O)[nH]c1=O` (stereo unspecified), the TGI in assay [1], in [2], in assay [3], in assay [4], in assay [5] and in assay [6] was over 100 µM each time. The TGI in [7], in [8], in assay [9] and in assay [10] was over 100 µM throughout.

`COC(=O)NC(Cc1ccccc1)NC(=O)OC(C)(C)C` (stereo unspecified): the TGI in [1], in assay [2], in [3], in [4], in assay [5] and in [6] was over 100 µM throughout. In addition, the TGI in assay [7], in assay [8], in assay [9] and in assay [10] was over 100 µM each time.

As for `O=c1oc2ccccc2c(O)c1C(c1ccc(OCc2ccccc2)cc1)c1c(O)c2ccccc2oc1=O`, the TGI in assay [1] was over 100 µM; in [2] it was 81.2 µM; in [3] it was 96.9 µM; in [4], over 100 µM; in assay [5], 91.6 µM; in [6], over 100 µM. Besides, the TGI in [7], in [8], in [9] and in [10] was over 100 µM each time.

Turning to `COc1ccc(/C(=N/O)c2ccccc2C2=Nc3ccccc3C(NCc3ccccc3)O2)cc1C` (stereo unspecified), the TGI in [1] was over 100 µM; in assay [2], over 100 µM; in [3] it was over 100 µM; in assay [4] it was over 100 µM; in assay [5], 71.9 µM; in assay [6], over 100 µM. Also, the TGI in assay [7] is over 100 µM; in [8] it was over 100 µM; in assay [9], over 100 µM; in [10], 88.7 µM.

As for `C[Si](C)(C)OC1(C#N)c2ccccc2CCCC12CCCC2` (stereo unspecified), the TGI is over 100 µM in assay [1]; over 100 µM in assay [2]; 44 µM in assay [3]; over 100 µM in assay [4]; 89.9 µM in assay [5]; over 100 µM in [6]. Further, the TGI in assay [7] is over 100 µM; in assay [8], over 100 µM; in assay [9], 92.2 µM; in assay [10], over 100 µM.

Turning to `CCOc1ccc2c(c1)C(/C(C(Cl)=C(Cl)Cl)=[N+](/[O-])OC(=O)c1ccccc1)=N2`, the TGI in assay [1], in assay [2], in assay [3], in assay [4], in [5] and in assay [6] was over 100 µM throughout. Besides, the TGI in [7], in [8], in assay [9] and in [10] was over 100 µM each time.

Regarding `CCOP(=O)(OCC)/C(=C/n1c(=S)[nH]c2ccccc21)C(=O)OC`, the TGI in [1], in assay [2], in assay [3], in assay [4], in assay [5] and in [6] was over 100 µM throughout. The TGI in assay [7], in assay [8], in [9] and in [10] was over 100 µM in each case. The GI50 in assay [5] was over 100 µM.
